The source of these data is publication PMC7699745, “The Search for New Anticonvulsants in a Group of (2,5-Dioxopyrrolidin-1-yl)(phenyl)Acetamides with Hybrid Structure—Synthesis and In Vivo/In Vitro Studies” (International Journal of Molecular Sciences, 2020).

The subject of series [1] is capsaicin-induced nociceptive response, mice. The experiment in a line: Capsaicin-induced pain model. The class given is in vivo. The source says: Capsaicin activates C polymodal fibers and enhances their firing, which contributes to subsequent hyperalgesia. The molecular mechanism of action of capsaicin is the activation of the nonselective cation channel, transient receptor potential vanilloid-1 (TRPV1), which is localized on nociceptive free nerve endings. That induces the release of proinflammatory neuropeptides such as calcitonin gene-related peptide (CGRP), vasoactive intestinal peptide (VIP), and substance P (SP). The phenomenon of the induction of tissue inflammation by the peripheral nervous system is called neurogenic inflammation, and it is involved in the development of inflammatory and neuropathic pain. AEDs such as gabapentin, topiramate, or lamotrigine decrease capsaicin-induced nocifensive behavior [25].
The experimental groups consisted of 6–12 adult male Albino Swiss mice (CD-1, 18–25 g). Each animal was tested only once. […]
The experimental in vivo procedures were previously reported for the formalin test; compounds 4 and 30 were tested in three doses—40, 80, 120 mg/kg (4), and 20, 40, 80 mg/kg (30). […] The in vivo procedure for the model of capsaicin-induced nociception was previously reported; the animals were pretreated with vehicle (10 mL/kg, negative control) and the dose–response of investigated compounds was evaluated at 40, 80, 120 mg/kg (4), and 20, 40, 80 mg/kg (30). […]

The subject of a further series is Na+ channel (site 2). The series can be described thus: Radioligand binding, Na+ channel (site 2). The conditions noted are these: 10 µM; rat cerebral cortex. The method, then: (§1) Taking into consideration the structural similarities of molecules described in the current manuscript with their chemical prototypes AS-1 and DK-1, the binding studies toward aforementioned molecular targets were performed commercially for several active substances from each subseries (3, 4, 21, 24, 25, 27, 29, and 30). Furthermore, we also tested two other and well-known targets for AEDs, namely, the Cav2.2 (N-type) calcium channel and gamma-aminobutyric acid (GABA)-A receptor. With the aim of excluding potentially dangerous proarrhythmic properties for each compound, their interaction with the potassium (hERG) channel was also tested.
(§2) Binding studies were carried out commercially in Eurofines Laboratories (Poitiers, France). The functional assays were performed in Eurofins Panlabs Discovery Services Taiwan, Ltd. (New Taipei City, Taiwan). All procedures are described elsewhere (for details, see Table S4 in Supplementary Materials).
(§3) Binding studies were carried out commercially in Eurofines Laboratories (Poitiers, France). The
(§4) functional assays were performed in Eurofins Panlabs Discovery Services Taiwan, Ltd. (New Taipei
(§5) City, Taiwan). All procedures are described elsewhere (Table S4).
Table S4. In vitro binding and functional assays. […]

The target in a further series is T1, Cav2.2 channel (Rattus norvegicus, UniProt Q02294).
T1 construct: tissue Eurofins (Poitiers, France), contract assay; host or cells: rat cerebral cortex (own knowledge of the vendor's assay)
T1 sequence (Q02294 whole entry): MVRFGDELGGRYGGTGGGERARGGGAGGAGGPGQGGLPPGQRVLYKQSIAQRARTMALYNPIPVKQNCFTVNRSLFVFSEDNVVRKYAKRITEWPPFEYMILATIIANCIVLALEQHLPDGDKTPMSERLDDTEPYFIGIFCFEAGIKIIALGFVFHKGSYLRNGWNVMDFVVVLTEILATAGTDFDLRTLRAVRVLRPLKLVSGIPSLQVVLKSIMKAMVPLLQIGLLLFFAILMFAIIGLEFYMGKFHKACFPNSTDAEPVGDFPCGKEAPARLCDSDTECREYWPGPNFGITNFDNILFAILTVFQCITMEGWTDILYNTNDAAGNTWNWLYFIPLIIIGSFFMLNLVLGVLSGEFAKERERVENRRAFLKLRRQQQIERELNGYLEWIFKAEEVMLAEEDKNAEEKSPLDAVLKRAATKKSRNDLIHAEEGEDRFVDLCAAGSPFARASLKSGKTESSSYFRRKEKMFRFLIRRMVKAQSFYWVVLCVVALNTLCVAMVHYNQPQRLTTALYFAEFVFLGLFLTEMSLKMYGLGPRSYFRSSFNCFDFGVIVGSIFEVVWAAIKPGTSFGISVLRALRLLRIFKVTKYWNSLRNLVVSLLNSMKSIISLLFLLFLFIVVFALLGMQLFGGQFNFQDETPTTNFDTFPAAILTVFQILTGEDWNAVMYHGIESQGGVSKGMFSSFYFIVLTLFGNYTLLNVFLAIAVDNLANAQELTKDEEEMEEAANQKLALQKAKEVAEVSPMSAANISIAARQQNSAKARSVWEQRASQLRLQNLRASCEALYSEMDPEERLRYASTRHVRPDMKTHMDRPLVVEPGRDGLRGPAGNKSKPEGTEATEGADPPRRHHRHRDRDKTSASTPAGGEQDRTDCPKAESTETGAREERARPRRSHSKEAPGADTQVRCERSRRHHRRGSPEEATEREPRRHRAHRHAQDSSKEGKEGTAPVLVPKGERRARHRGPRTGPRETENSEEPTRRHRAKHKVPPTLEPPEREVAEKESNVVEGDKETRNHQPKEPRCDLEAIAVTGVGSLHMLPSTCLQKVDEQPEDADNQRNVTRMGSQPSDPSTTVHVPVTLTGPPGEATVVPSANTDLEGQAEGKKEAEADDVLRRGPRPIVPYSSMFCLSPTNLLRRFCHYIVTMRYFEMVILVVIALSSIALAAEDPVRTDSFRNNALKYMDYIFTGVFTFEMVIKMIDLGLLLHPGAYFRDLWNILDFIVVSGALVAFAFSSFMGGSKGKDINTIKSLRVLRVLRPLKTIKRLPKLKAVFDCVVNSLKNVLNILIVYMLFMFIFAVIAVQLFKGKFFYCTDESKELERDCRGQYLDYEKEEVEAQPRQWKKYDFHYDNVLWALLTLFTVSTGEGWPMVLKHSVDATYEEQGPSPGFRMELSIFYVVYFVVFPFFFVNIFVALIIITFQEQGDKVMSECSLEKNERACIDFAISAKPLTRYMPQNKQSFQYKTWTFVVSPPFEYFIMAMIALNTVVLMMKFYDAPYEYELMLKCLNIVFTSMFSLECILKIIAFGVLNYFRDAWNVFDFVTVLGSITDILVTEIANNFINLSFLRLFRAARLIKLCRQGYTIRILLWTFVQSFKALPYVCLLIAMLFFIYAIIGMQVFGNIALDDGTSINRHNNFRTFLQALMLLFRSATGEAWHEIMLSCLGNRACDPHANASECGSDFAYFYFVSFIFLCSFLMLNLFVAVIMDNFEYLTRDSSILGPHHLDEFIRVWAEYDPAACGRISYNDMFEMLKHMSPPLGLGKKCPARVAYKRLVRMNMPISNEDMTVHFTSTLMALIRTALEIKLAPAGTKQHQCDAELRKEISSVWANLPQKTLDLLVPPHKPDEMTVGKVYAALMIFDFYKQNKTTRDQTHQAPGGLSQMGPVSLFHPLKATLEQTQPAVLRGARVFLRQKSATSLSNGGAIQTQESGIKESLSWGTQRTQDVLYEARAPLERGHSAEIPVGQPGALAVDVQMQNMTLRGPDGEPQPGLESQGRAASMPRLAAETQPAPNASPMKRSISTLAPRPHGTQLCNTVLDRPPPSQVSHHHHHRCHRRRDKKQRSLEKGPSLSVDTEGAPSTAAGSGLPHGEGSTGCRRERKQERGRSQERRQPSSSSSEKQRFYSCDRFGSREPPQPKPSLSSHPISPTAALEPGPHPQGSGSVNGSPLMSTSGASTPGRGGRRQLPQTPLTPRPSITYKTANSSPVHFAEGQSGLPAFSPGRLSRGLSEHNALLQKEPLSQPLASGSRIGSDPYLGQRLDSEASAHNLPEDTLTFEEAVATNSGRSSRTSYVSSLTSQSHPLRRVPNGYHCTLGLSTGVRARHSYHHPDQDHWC
T1 sequence (P54287 whole entry partner): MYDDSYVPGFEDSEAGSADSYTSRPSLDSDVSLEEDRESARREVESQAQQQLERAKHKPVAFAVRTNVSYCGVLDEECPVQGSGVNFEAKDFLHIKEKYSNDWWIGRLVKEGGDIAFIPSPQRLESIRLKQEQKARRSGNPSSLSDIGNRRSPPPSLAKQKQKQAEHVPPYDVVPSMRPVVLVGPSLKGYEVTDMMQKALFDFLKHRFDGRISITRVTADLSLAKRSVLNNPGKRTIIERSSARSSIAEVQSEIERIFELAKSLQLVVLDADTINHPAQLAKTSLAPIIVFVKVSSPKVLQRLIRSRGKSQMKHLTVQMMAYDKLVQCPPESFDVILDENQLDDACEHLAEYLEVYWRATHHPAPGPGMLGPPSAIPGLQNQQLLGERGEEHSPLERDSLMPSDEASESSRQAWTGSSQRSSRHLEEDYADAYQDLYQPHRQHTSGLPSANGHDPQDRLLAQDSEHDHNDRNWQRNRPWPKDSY
T1 sequence (P54290 25-944 partner limits assumed): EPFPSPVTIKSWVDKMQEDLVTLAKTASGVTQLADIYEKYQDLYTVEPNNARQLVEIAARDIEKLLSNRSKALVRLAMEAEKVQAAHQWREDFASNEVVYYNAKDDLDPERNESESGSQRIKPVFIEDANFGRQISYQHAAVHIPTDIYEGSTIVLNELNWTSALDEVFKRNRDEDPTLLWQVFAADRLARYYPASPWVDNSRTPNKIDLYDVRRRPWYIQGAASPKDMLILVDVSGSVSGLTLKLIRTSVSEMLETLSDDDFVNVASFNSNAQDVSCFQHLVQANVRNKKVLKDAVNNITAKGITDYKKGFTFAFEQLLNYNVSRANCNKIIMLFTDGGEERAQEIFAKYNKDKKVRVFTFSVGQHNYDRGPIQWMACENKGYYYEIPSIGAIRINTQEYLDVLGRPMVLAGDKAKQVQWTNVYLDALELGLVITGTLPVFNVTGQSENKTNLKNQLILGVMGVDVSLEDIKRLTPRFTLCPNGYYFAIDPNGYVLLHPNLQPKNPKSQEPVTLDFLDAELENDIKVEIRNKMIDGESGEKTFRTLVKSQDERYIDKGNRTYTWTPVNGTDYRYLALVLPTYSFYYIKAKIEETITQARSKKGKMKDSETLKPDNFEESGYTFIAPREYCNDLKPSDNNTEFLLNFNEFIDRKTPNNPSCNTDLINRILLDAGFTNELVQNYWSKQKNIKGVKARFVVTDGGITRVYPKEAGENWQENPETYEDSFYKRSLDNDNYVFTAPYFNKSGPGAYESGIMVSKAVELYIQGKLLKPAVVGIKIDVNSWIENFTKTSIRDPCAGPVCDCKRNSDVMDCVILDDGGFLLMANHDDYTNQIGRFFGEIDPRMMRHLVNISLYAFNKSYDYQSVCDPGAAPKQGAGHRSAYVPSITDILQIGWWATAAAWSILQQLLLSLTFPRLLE
T1 sequence (P54290 945-1091 partner limits assumed): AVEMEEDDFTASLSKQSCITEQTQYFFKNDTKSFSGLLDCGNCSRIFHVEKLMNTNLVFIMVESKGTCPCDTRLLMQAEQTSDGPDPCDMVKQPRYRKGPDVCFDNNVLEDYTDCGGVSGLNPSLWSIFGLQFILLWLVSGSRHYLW
The series can be described thus: Radioligand binding, Cav2.2 channel. The arrangement: dose or concentration left out as unconfirmed. To be noted: rat cerebral cortex; read-out: % Inhibition of Control Specific Binding, Cav2.2 Channel (Antagonist Radioligand). The method, then:
as §1, §2, §3, §4, §5
(§6) Table S4. In vitro binding and functional assays.
(§7) GABA-A receptor (α1,β2,γ2)
(§8) Potassium channel (hERG) 14
(§9) Cav1.2 (h) calcium ion channel cell based antagonist calcium flux assay 16,17

Series [2] deals with 6 Hz (32 mA) seizures, mice. The experiment in a line: Psychomotor 6 Hz (32 mA) seizure model. The format is in vivo. The conditions noted are these: Mus musculus, ip; for responders at 100 mg/kg: 0.5 h, read-out: 6 Hz (32 mA) test, number of mice protected / number of mice tested (converted).
The next series addresses CYP2C9 (Homo sapiens, UniProt P11712). The series can be described thus: Luminescent CYP2C9 P450-Glo assay. The conditions noted are these: 10 and 25 µM.
For another series, the target named is T2, Potassium channel (hERG) (Homo sapiens, UniProt Q12809).
T2 construct: Eurofins (Poitiers, France), contract assay
The series can be described thus: Binding, potassium channel (hERG). To be noted: 100 µM; human recombinant (HEK-293 cells). The method, then:
as §1, §2, §3, §4, §5, §6, §7, §8, §9
In general terms: Block of hERG is tested as a sign of cardiac risk.

In another series the test system is hepatoma HepG2 cells. The experiment in a line: Hepatotoxicity, MTS cell viability assay. The format is cell-based. To be noted: 100 µM, 72 h. The method, then: The hepatotoxicity assessment was done with use of hepatoma HepG2 cells, which were incubated for 72 h in the presence of 1–100 µM concentrations of 4, 24, and 30. The CellTiter 96® aqueous nonradioactive cell proliferation assay (MTS) purchased from Promega (Madison, WI, USA) was used for determination of cell viability. The absorbance was measured using a microplate reader EnSpire (PerkinElmer, Waltham, MA, USA) at 492 nm. The obtained results confirmed the safety of the investigated series.
These studies were performed on hepatoma HepG2 cells, according to a protocol reported previously
Background: Tetrazolium assays rely on reduction of a dye to a coloured formazan, in cell work by metabolically active cells.

Sequence of CYP2C9 (P11712 whole entry): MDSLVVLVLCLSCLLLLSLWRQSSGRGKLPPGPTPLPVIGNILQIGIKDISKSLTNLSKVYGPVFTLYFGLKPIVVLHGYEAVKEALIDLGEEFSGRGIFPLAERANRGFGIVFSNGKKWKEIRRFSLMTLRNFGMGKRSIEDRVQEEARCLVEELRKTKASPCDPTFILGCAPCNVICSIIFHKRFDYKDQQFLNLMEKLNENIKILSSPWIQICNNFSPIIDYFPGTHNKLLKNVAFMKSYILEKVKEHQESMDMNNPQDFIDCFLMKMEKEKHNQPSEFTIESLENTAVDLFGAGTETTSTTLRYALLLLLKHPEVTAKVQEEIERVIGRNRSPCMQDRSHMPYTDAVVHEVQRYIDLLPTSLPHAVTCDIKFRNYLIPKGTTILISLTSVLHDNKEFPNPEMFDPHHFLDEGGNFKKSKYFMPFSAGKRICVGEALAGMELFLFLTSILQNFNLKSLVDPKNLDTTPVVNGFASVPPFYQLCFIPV

The term melting point denotes the temperature of the solid-liquid transition. What is called inhibition is the change of the read-out against control, counted positive when it falls. In turn, `O=C(Nc1ccccc1F)C(c1ccccc1)N1C(=O)CCC1=O` (stereo not shown) [Compound 4, 2-(2,5-Dioxopyrrolidin-1-yl)-N-(2-fluorophenyl)-2-phenylacetamide] had a melting point of 106.6 to 107.1 °C. Moreover, the “attenuation of nociceptive response in capsaicin-induced pain” value in series [1] (i.p., 120 mg/kg) was determined as 37.9%. Moreover, the “% Inhibition of Control Specific Binding, Na+ Channel (Site 2) (Antagonist Radioligand)” value in the series on Na+ channel (site 2) amounted to 23.5%. For the same compound, the inhibition at Cav2.2 channel came out at 1.1%. In series [2], the responders at 100 mg/kg is 25%. The “effect on CYP2C9 activity” value at CYP2C9 is on record as “blocked its activity”. Moreover, on Potassium channel (hERG), the “% Inhibition of Control Specific Binding, Potassium Channel (hERG)” value was found to be 2.3%.
What is called ED50 is the midpoint of the dose-response relation. Turning to `O=C(NCCc1cccc(OC(F)(F)F)c1)C(c1ccccc1)N1C(=O)CCC1=O` (stereo not shown) [Compound 30, 2-(2,5-Dioxopyrrolidin-1-yl)-2-phenyl-N-(3-(trifluoromethoxy)phenethyl)acetamide], the melting point lay in the range of 113.3 to 114.2 °C. In series [1] (Mus musculus, ip, i.p. 30 min before test), this compound came in with an ED50 of 35.3 mg/kg. In the series on Na+ channel (site 2), the “% Inhibition of Control Specific Binding, Na+ Channel (Site 2) (Antagonist Radioligand)” value came to 15.8%. In the series on hepatoma HepG2 cells, the “effect on HepG2 cells viability” value is on record as “statistically significant (p < 0.001) effect on cells viability”. Moreover, the inhibition on Cav2.2 channel was found to be 4%. In addition, the responders at 100 mg/kg in series [2] is 75%. In addition, in series [2] (at TPE (0.5 h; LTG 1.0 h), 95% confidence intervals in parentheses), the 50% effective dose (ED50) amounted to 39.5 mg/kg. Also, the “effect on CYP2C9 activity” value on CYP2C9 was “blocked its activity”. For the same compound, the “% Inhibition of Control Specific Binding, Potassium Channel (hERG)” value at Potassium channel (hERG) was found to be 1.7%.
